# How the values were obtained:
# Format in all cases: in vivo, human
# [1] = test system: patients with progressive IMCVD; test: Etanercept treatment of twelve patients with progressive IMCVD (25 mg subcutaneous injection twice a week)
# Source text: Study subjects were suspected of having IMCVDs mainly based on (1) the presence of bilateral sensorineural healing loss or typical symptoms of Meniere's disease with a recent progressive decline, (2) a clear response to high dose prednisone therapy, and/or (3) the presence of anti-HSP70 antibodies. Reasons for attempting etanercept therapy in these study patients included: (a) failure of conventional treatments in seven, (b) side effects of conventional treatment in three, (c) the need for corticosteroid sparing agent with a quick onset of action given intolerable corticosteroid side effects and rapidly progressive worsening of hearing in three, and (d) the patient's wish to avoid conventional agents in two given their known side effects of sub-optimal efficacy profile.
# Of the 12 patients, six (50%) were women. The mean age was 47 (range, 24 to 71), and the mean duration of disease prior to the etanercept therapy was 13 years (range, 2 to 25 years). All 12 patients had both ears involved, 2 had predominantly one ear involvement with good hearing in the contralateral ear, 4 had significant loss of hearing in both ears, and 6 had lost all functional hearing in one ear and were treated with etanercept for a recent progressive decline of the remaining hearing. […] Patient # 9 had symmetric polyarthralgia, morning stiffness without documented synovitis, negative rheumatoid factor and positive anti-nuclear antibodies. Four of the 10 patients who were tested had antibodies to HSP70. Previous anti-rheumatic treatments included methotrexate in five, cyclophosphamide (CYTOXAN) in two, hydroxycholoquine in one, and chlorambucil in one. All patients received a trial of diuretics and sodium-restricted diet. Two of the patients had hypertension, one had diet-controlled diabetes mellitus, one had hyperlipidemia, and one had hypothyroidism.
# Etanercept was started while the patients were on high dose prednisone (except in 2 cases, who were already off prednisone because of intolerable side-effects). The prednisone dose was then tapered off over 2 to 6 weeks (except in 2 cases) depending on disease severity, response to prednisone, and the severity of side effects of prednisone. The mean duration of the etanercept treatment in the 12 patients was 7 months (82 patient-months; range, 5 to 10 months) and mean follow-up from the start date of etanercept therapy was 8 months (range: 5.66 to 12 months). Seven of the twelve patients were still on etanercept at the end of study period (mean duration of 7 months) and the remaining five discontinued the drug. Four patients discontinued the drug at the end of the target period (6 months), and one patient was switched to infliximab (Remicade™), another TNF-receptor blocker for less than desired benefit from etanercept (duration 9 months). A criteria of prednisone response was based on improvements in hearing, vertigo, and equilibrium, as previously published by Sismanis et al. (Otolaryngology—Head and Neck Surgery 116(2): 146-52, 1997).
# The main outcome measurement was improvement or stabilization of hearing by air conduction pure tone audiograms and/or by word discrimination scores. A slightly modified version of improvement criteria which was previously used to evaluate the efficacy of glucocorticoids was employed for IMCVDs: >15 dB at one frequency, 10 dB at two or more consecutive frequencies, or 15% increase in word discrimination scores (Sismanis et al., supra; Rauch, Annals of the New York Academy of Sciences 830:203-210, 1997). The audiogram before initiation of etanercept was compared with the most recent audiogram. When present, vertigo, tinnitus, and fullness were assessed using a 3-level response scale: better, no change, and worse. Outcomes were based on measurements at the farthest follow-up from the initiation of etanercept or at the declaration of no improvement in hearing by etanercept therapy, whichever came first. More than a 5-month follow-up was available for all patients (range: 5-12 months) […]
# [2] = test system: patients with IMCVD; test: Initial trials of leflunomide in patients with IMCVD (20 mg orally every day); conditions: of 3 patients, 5-6 month or 1-year regimen
# [3] = test system: patients with IMCVD; test: Two other separate trials of etanercept in additional IMCVD patients
# [4] = test system: patients with IMCVD; test: Infliximab trial in patients with IMCVD (3 mg/kg intravenous infusion every two months); conditions: of 3 patients; 3 mg/kg i.v. infusion every two months, at least 6 months
# Method: In addition to etanercept, another TNF antagonist, infliximab, was also tested for efficacy. In this trial, 3 patients with IMCVD were treated with 3 mg/kg body weight of Remicade™ by intravenous infusion every two months. Treatment was continued for at least 6 months, and the patients were monitored.
# [5] = single patient #1 on etanercept
compound,measurement,setting,value
"Cc1oncc1C(=O)Nc1ccc(C(F)(F)F)cc1 [leflunomide, N-(4′-trifluoromethylphenyl)-5-methylisoxazole-4-carboxamide]","overall hearing after leflunomide was later added, patient #8","[1]; single patient #8, leflunomide added to etanercept",did not make any difference
same,"hearing outcome after addition of leflunomide to etanercept, patient #11","[1]; single patient #11, leflunomide added to etanercept after deterioration",rescued and stabilized
same,patients exhibiting positive results,[2],2 patients
etanercept,patients who had aural fullness with resolution or significant improvement of symptoms,[1]; 8 out of 9 patients who had aural fullness,89%
same,patients on prednisone able to taper off prednisone without affecting their hearing,"[1]; 10 patients on variable doses of prednisone to maintain hearing, after starting etanercept",Eight of the 10
same,patients with improvement or stabilization of hearing and tinnitus,"[1]; 11 out of 12 patients, 25 mg s.c. twice a week, follow-up 5-12 months",92%
same,adverse reactions,"[1]; 12 patients, 25 mg s.c. twice a week",no adverse reactions except for mild transient injection-site reactions in a few patients
same,patients who had vertigo with resolution or significant improvement of symptoms,[1]; Seven out of 8 patients who had vertigo,88%
same,side effects during the follow-up period,[1]; follow-up period,no appreciable side effects
same,"persistence of benefit until the last visit, time after starting etanercept","[1]; human, in vivo",5 to 12 months
same,"hearing fluctuation, tinnitus, aural fullness and vertigo, patient #1",[1]; [5],"the fluctuation stabilized and their tinnitus, aura fullness, and vertigo resolved"
same,"overall hearing, patient #1",[1]; [5],did not have any significant improvement
same,"tinnitus and vertigo after switching to etanercept, patient #8",[1]; single patient #8,improvement
same,"hearing outcome, patient #8 switched to etanercept","[1]; single patient #8, previously losing hearing on methotrexate and chlorambucil",stabilized their hearing after being switched to etanercept but at a lower level than their baseline
same,"hearing outcome, patient #11 on etanercept",[1]; single patient #11,initial dramatic improvement after starting etanercept but deteriorated after 5 months
same,"patients who experienced improvement in tinnitus, aural fullness, and vertigo",[1]; summary of 12 patients,approximately 90%
same,patients who stabilized their rapidly progressing hearing loss,[1]; summary of 12 patients,33%
same,patients with remarkable improvement of hearing,[1]; summary of 12 patients,58%
same,patients showing positive outcomes,"[3]; in sum, out of 18 patients with IMCVD treated with etanercept (all trials)",16 patients
same,outcome of IMCVD symptoms in additional patients,[3]; six additional patients in two other separate trials,all showed improvement or stabilization of IMCVD symptoms
"infliximab: chimeric monoclonal antibody that binds to TNF-α, marketed as Remicade","hearing after switch from etanercept to infliximab, patient #11","[1]; single patient #11, switched after 9 months on etanercept",remained unchanged
same,patients exhibiting positive results,[4],3 patients

# Reference: patent US6548527B2, “Treatments for immune-mediated ear disorders” (The General Hospital Corporation, priority 2000, dated 2003)
